From EP4603105A1, “PHARMACEUTICAL COMPOSITION CONTAINING CYCLIC COMPOUND HAVING SELECTIVE KRAS INHIBITORY EFFECT AGAINST HRAS AND NRAS” (CHUGAI SEIYAKU KABUSHIKI KAISHA, priority 2022, dated 2024)

What was measured:
HRAS wild-type protein = HRAS wild-type protein (Homo sapiens, UniProt P01112); experiment: Binding to HRAS by surface plasmon resonance (SPR), KD and KD ratio to KRAS
In short: (§1)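 Affinity is measured by surface plasmon resonance at 30°C against captured, GDP-loaded RAS carrying a biotinylated Avi tag. Compounds are titrated by single-cycle kinetics, and KD comes from a 1:1 fit.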

[1] = molecular target: GDP-bound NRAS wild-type protein (Homo sapiens, UniProt P01111); experiment: Binding to NRAS by surface plasmon resonance (SPR), KD and KD ratio to KRAS
In short: as §1

[2] = test system: human lung cancer strain NCI-H441; format: cell-based
In short: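 Readout: […] after the ATP-based reagent. Compound: serial dilutions in dimethyl sulfoxide.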

[3] = ratio of the KD value with respect to HRAS wild-type protein to the KD value with respect to KRAS
[4] = ratio of the KD value with respect to GDP-bound NRAS wild-type protein to the KD value with respect to KRAS
[5] = ratio of KD for HRAS wild-type protein to KD for KRAS
[6] = ratio of KD for GDP-bound NRAS wild-type protein to KD for KRAS

Chain of HRAS wild-type protein (P01112 whole entry): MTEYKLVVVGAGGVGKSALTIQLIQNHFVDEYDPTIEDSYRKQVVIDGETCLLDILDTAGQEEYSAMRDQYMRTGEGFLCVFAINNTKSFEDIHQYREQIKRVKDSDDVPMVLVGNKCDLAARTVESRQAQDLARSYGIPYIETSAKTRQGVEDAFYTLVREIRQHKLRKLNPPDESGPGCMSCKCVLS
Chain of GDP-bound NRAS wild-type protein (P01111 whole entry): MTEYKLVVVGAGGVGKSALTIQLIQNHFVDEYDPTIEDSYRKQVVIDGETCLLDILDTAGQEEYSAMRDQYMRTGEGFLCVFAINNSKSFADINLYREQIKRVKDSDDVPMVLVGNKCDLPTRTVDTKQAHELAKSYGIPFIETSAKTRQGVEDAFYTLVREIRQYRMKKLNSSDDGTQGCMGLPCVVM

Structure (SMILES) | HRAS /KRAS (HRAS wild-type protein; [3]) | NRAS /KRAS [1, 4] | IC50 [2] | HRAS /KRAS (HRAS wild-type protein; [5]) | NRAS /KRAS [1, 6]
CC[C@H](C)[C@@H]1NC(=O)[C@H](CC(C)C)N(C)C(=O)C[C@@H](C(=O)N2CCOCC2)NC(=O)[C@H](C2CCCC2)N(C)C(=O)C2(CCCC2)NC(=O)[C@@H]2CCCN2C(=O)[C@H](CCc2cc(F)c(C(F)(F)F)c(F)c2)NC(=O)CN(C)C(=O)[C@H](Cc2ccc(C(F)(F)F)cc2)N2CCCCC[C@@H](C2=O)N(C)C(=O)CN(C)C1=O [PP0479] | B (a compound having 3 or more and less than 10 is denoted as B) | B (a compound having 3 or more and less than 10 is denoted as B) | 2440 nM |  | 
CCO[C@@H]1C[C@H]2C(=O)NC3(CC(C)(C)C3)C(=O)N(C)[C@@H](C(CC)CC)C(=O)N(C)[C@H](C(=O)N(C)C)CC(=O)N(C)[C@H]3CCCCC/C=C/c4ccc(cc4)C[C@@H](C(=O)N(C)CC(=O)N[C@@H](CCc4ccc(Cl)c(Cl)c4)C(=O)N2C1)N1CC/C=C\C[C@@H](C1=O)N(C)C(=O)CN(C)C(=O)[C@H]([C@@H](C)CC)NC3=O [PP3050] |  |  | 19.3 nM | A (a compound having 10 or more and less than 20 is denoted as A) | AA (a compound having 20 or more is denoted as AA)
C#CC[C@H]1C(=O)N[C@@H]([C@@H](C)CC)C(=O)N(C)CC(=O)N(C)[C@H]2C/C=C\CCN(C2=O)[C@@H](Cc2ccc(C(F)(F)F)cc2)C(=O)N(C)CC(=O)N[C@@H](CCc2ccc(C(F)(F)F)c(OC)c2)C(=O)N2C[C@H](OCC)C[C@H]2C(=O)NC2(CC(C)(C)C2)C(=O)N(C)[C@@H](C2CCCC2)C(=O)N(C)[C@H](C(=O)N(C)CCC)CC(=O)N1C [PP2053] | A (a compound having 10 or more and less than 20 is denoted as A) | A (a compound having 10 or more and less than 20 is denoted as A) | 9.3 nM |  | 
CCC(CC)[C@@H]1NC(=O)[C@H](CC(C)C)N(C)C(=O)C[C@@H](C(=O)N2CCOCC2)N(C)C(=O)[C@H](C2CCCC2)N(C)C(=O)C2(CCCC2)NC(=O)[C@@H]2CCCN2C(=O)[C@H](CCc2cc(F)c(C(F)(F)F)c(F)c2)NC(=O)CN(C)C(=O)[C@H](Cc2ccc(C(F)(F)F)cc2)N2CCCC[C@@H](C2=O)N(C)C(=O)CN(C)C1=O [PP0597] | B (a compound having 3 or more and less than 10 is denoted as B) | B (a compound having 3 or more and less than 10 is denoted as B) | 18.2 nM |  | 
CCC[C@H]1C(=O)N[C@@H]([C@@H](C)CC)C(=O)N(C)CC(=O)N(C)[C@H]2C/C=C\CCN(C2=O)[C@@H](Cc2ccc(C)cc2)C(=O)N(C)CC(=O)N[C@@H](CCc2ccc(Cl)c(Cl)c2)C(=O)N2CCCCC[C@H]2C(=O)NC2(CC(C)(C)C2)C(=O)N(C)[C@@H](C(CC)CC)C(=O)N(C)[C@H](C(=O)N(C)C)CC(=O)N1C [PP2962] |  |  | 39.2 nM | A (a compound having 10 or more and less than 20 is denoted as A) | AA (a compound having 20 or more is denoted as AA)
CCC(CC)[C@H]1C(=O)N(C)[C@H](C(=O)N(C)C)CC(=O)N(C)[C@@H](COC)C(=O)N[C@@H]([C@@H](C)CC)C(=O)N(C)CC(=O)N(C)[C@H]2C/C=C\CCN(C2=O)[C@@H](Cc2ccc(C(F)(F)F)cc2)C(=O)N(C)CC(=O)N[C@@H](CCc2cc(F)c(C(F)(F)F)c(F)c2)C(=O)N2CC3(CC3)C[C@H]2C(=O)NC2(CC(C)(C)C2)C(=O)N1C [PP2961] |  |  | 13.9 nM | A (a compound having 10 or more and less than 20 is denoted as A) | AA (a compound having 20 or more is denoted as AA)
CCO[C@@H]1C[C@H]2C(=O)NC3(CC(C)(C)C3)C(=O)N(C)[C@@H](C(CC)CC)C(=O)N(C)[C@H](C(=O)N3CCCCC3)CC(=O)N(C)[C@H]3CCC/C=C/c4ccc(cc4)C[C@@H](C(=O)N(C)CC(=O)N[C@@H](CCc4cc(F)c(C(F)(F)F)c(F)c4)C(=O)N2C1)N1CC/C=C\C[C@@H](C1=O)N(C)C(=O)CN(C)C(=O)[C@H]([C@@H](C)CC)NC3=O [PP2952] |  |  | 45 nM | A (a compound having 10 or more and less than 20 is denoted as A) | AA (a compound having 20 or more is denoted as AA)
CCO[C@@H]1C[C@H]2C(=O)NC3(CC(C)(C)C3)C(=O)N(C)[C@@H](C(CC)CC)C(=O)N(C)[C@H](C(=O)N3CCCC3)CC(=O)N(C)[C@@H](C)C(=O)N[C@@H]([C@@H](C)CC)C(=O)N(C)CC(=O)N(C)[C@H]3C/C=C\CCN(C3=O)[C@@H](Cc3ccc(C(F)(F)F)cc3)C(=O)N(C)CC(=O)N[C@@H](CCc3ccc(C(F)(F)F)c(OC)c3)C(=O)N2C1 [PP2163] | A (a compound having 10 or more and less than 20 is denoted as A) | A (a compound having 10 or more and less than 20 is denoted as A) | 18.2 nM |  | 
